For assay [1], the system named is S. mutans (ATCC No. 25715). Put plainly: MIC against S. mutans. To be noted: Streptococcus mutans, ATCC25715; 48 hours, 37° C., turbidity <0.05 absorbance at 660 nm. The format is cell-based. An excerpt:
(§1) One method of evaluating the efficacy of LAE and MBE against salivary bacteria is by determining the minimum inhibitory concentration (MIC). One suitable method for determining MIC is described in U.S. Pat. No. 7,470,442, which is herein incorporated by reference. Briefly, chlorhexidine is used as a positive control and sterile water is used as a negative control. Methanol and Tween 80 are used as a solvent for MBE. Tween 80 is the common name for Polysorbate 80. Ninety-six-well microtiter plates are used for this study. Each well contained 5×10^5 CFU/ml of bacteria, serially diluted agents and bacterial growth medium. All bacterial cultures are incubated at 37° C. and stationary. Bacterial growth is estimated spectrophotometrically at 660 nm, after 48 hours.
(§2) S. mutans (ATCC No. 25715), S. sobrinus (ATCC 33478), S. salivarius (ATCC 13419) and F. nucleatum (ATCC No. 10953) were purchased from American Type Culture Center (ATCC, MD). S. mutans, S. sobrinus, and S. salivarius were incubated for 24 hours in Schaedler broth containing 1 ppm vitamin K and 10 ppm hemin. F. nucleatum was incubated anaerobically for 48 hrs. […]
(§3) The MIC of LAE and MBE against the four oral bacteria described supra was determined. The effectiveness of MBE and LAE on total salivary bacteria was evaluated using whole saliva. […]

Assay [2] has as its system S. salivarius (ATCC 13419). Put plainly: MIC against S. salivarius. In kind it is cell-based. The settings on record: Streptococcus salivarius, ATCC13419; 48 hours, 37° C., turbidity <0.05 absorbance at 660 nm.
Description: as §1, §2, §3

Assay [3] deals with S. sobrinus (ATCC 33478). Put plainly: MIC against S. sobrinus. The format is cell-based. To be noted: Streptococcus sobrinus, ATCC33478; 48 hours, 37° C., turbidity <0.05 absorbance at 660 nm.
Description: as §1, §2, §3

For assay [4], the system named is F. nucleatum (ATCC No. 10953). The experiment in a line: MIC against F. nucleatum. In kind it is cell-based. The settings on record: Fusobacterium nucleatum, ATCC10953; 48 hours, 37° C., turbidity <0.05 absorbance at 660 nm.
Description: as §1, §2, §3

Assay [5] has as its system total salivary bacteria (whole saliva). The experiment in a line: MIC and FIC Index against total salivary bacteria (whole saliva). In kind it is cell-based, human.
Description: as §1
For testing total salivary bacteria (whole saliva), 30 ml of saliva was collected from a minimum of 3 healthy human volunteers by chewing a standard gum base. The freshly collected saliva was vortexed briefly and directly added to nutrient broth.
A 1% (w/v) solution of MBE powder (95% magnolol, 5% honokiol, Honsea Sunshine Biotech Co., Ltd., Guangzhou, China) in 100% ethanol was prepared, and used in the current example.
LAE-CF (containing 99% pure LAE) was obtained from Vedeqsa of Barcelona, Spain, and used in the current example.
The MIC of LAE and MBE against the four oral bacteria described supra was determined. The effectiveness of MBE and LAE on total salivary bacteria was evaluated using whole saliva.
Chlorhexidine was used as a positive control and sterile water was used as a negative control. MBE was dissolved in ethanol to produce a working solution containing 1% of MBE. It was added to Shaedler broth that contained 10 ppm of Hemin, 1 ppm of Vitamin K and a minimum of 1×10^6 CFU/ml of bacterial strains. […]
Calculation of the FIC is disclosed in U.S. Pat. No. 7,074,447, which is herein incorporated by reference. Briefly, the FIC Index is calculated according to the following formula: FIC=[QA/Qa+QB/Qb] where […]

For assay [6], the system named is S. mutans (ATCC No. 25715). The experiment in a line: MBC against S. mutans. The format is cell-based. The settings on record: Streptococcus mutans, ATCC25715; kills at least 99.9% of initial inoculum. As to the method:
(§4) Another method for evaluating the efficacy of LAE and MBE against salivary bacteria is by determining the minimum bactericidal concentration (MBC). One suitable method for determining MBC is described in U.S. Pat. No. 7,470,442. Briefly, the MBC is determined using the 96-well microtiter plate serial dilutions as described above for the MIC test. Serial dilutions of cultures in wells showing no visible growth are performed and 10 microliters of culture are plated in triplicate on blood agar plates. Viable colonies are scored after incubation of the plates for 48 hours at 37° C. For each test bacterium, the number of CFU/ml is determined in the initial inoculum. The MBC is defined as the lowest concentration of a test compound that killed at least 99.9% of the cells present in the initial inoculum. […] The MBC of MBE and LAE against the four oral bacteria described supra was determined using the MBC protocol set forth below. The effectiveness of MBE on total salivary bacteria was evaluated using whole saliva. The MBC was determined by serial dilutions as described above for the MIC test. […] Viable colonies were scored after incubation of the plates for 48 hours at 37° C. For each test bacterium, the number of CFU/ml was determined in the initial inoculum. […]

Assay [7] deals with S. salivarius (ATCC 13419). Put plainly: MBC against S. salivarius. In kind it is cell-based. To be noted: Streptococcus salivarius, ATCC13419; kills at least 99.9% of initial inoculum. The method, then:
as §4

Assay [8] concerns S. sobrinus (ATCC 33478). Put plainly: MBC against S. sobrinus. In kind it is cell-based. The settings on record: Streptococcus sobrinus, ATCC33478; kills at least 99.9% of initial inoculum. The method, then:
as §4

Assay [9] has as its system F. nucleatum (ATCC No. 10953). The experiment in a line: MBC against F. nucleatum. The format is cell-based. The settings on record: Fusobacterium nucleatum, ATCC10953; kills at least 99.9% of initial inoculum. As to the method: as §4

Each structure is given as a SMILES string. Converted amounts (≈) assume the structure as drawn.

By MIC is commonly meant the smallest concentration in the dilution series that meets the test's criterion for growth inhibition. Read a high MIC as a need for much substance. As a reminder, the MBC is the smallest concentration meeting the test's criterion for killing. Read a low MBC as greater bactericidal potency. On to `CCCCCCCCCCCC(=O)N[C@@H](CCCNC(=N)N)C(=O)OCC` [LAE-CF, L-arginine, N^α-lauroyl ethyl ester], for which the MIC came to 6.3 µg/mL (≈ 16.4 µM) in assay [1], 6.3 µg/mL (≈ 16.4 µM) in assay [2], 6.3 µg/mL (≈ 16.4 µM) in the assay with S. sobrinus (ATCC 33478) [3] and 12.5 µg/mL (≈ 32.5 µM) in [4]. Further, the “MIC Whole Saliva” value in [5] (48 hours, 37° C., turbidity <0.05 absorbance at 660 nm) came to 50 ppm. For the same compound, the “MIC (ppm) on total salivary bacteria, component alone” value in [5] (Table 3, single agent) is reported as 50 ppm. In addition, in assay [5] (total salivary bacteria, FIC<1 synergistic, 1≤FIC≤2 additive, 2<FIC antagonistic), the FIC came to 1. Further, the MBC (in [6]; in assay [7]; with S. sobrinus (ATCC 33478) [8]; in assay [9]) was 12.5 µg/mL (≈ 32.5 µM) throughout.

The record behind these values is patent US10485746B2, “Synergistic antibacterial effects of magnolia bark extract and L-arginine, Nα-lauroyl ethyl ester on salivary bacteria” (WM. WRIGLEY JR. COMPANY, priority 2015, dated 2019).
